Measurements from paper PMC4117522, “Proteasome Inhibitors Alter Levels of Intracellular Peptides in HEK293T and SH-SY5Y Cells” (PLoS ONE, 2014).
Values joined by “and” are separate entries in the source; they are usually repeats but may differ in a detail not shown here. Equal values may be shown once.

How the values were obtained:
HEK293T cells = assay: Quantitative peptidomics (TMAB isotopic labels, LC-MS/MS) of inhibitor-treated HEK293T cells; type: cell-based, human
Procedure: (§1) HEK293T and SH-SY5Y cells were grown to 80–90% confluence in DMEM and RPMI supplemented with 10% fetal bovine serum and penicillin/streptomycin. A single plate of cells (150 mm×25 mm) was used for each group. At the start of the experiment, media were removed from the plates and cells were washed with DPBS (138 mM NaCl, 8.06 mM Na2HPO4, 2.67 mM KCl, 1.47 mM KH2PO4, 0.9 mM CaCl2 and 0.49 mM MgCl2). This was followed by addition of serum-free media containing the proteasome or aminopeptidase inhibitors, or 0.05% DMSO as a control for the inhibitors that were soluble in DMSO. Each experiment consisted of two control groups and two or three replicate groups of cells treated with one of the inhibitors. The cells were incubated at 37°C for 20 minutes, following which media containing the inhibitor was removed, cells were washed with DPBS, detached from the plate by scraping into DPBS (without trypsin), and centrifuged at 800×g for 5 min. The wash buffer was supplemented with the appropriate inhibitor at the same concentration as used for the treatment, thereby ensuring that the changes induced in peptide levels were not reversed during harvesting of cells due to possible dissociation of the reversible inhibitors. The wash time (including centrifugation) was 15 minutes, for a total treatment time of 35 minutes. After centrifugation, the cell pellet was resuspended in 1 ml of 80°C water and incubated in an 80°C water bath for 20 minutes to inactivate proteases. The mixture was again centrifuged (13,000×g, 30 min, 4°C) and was stored at −80°C overnight. For peptide extraction, the samples were thawed and centrifuged again. The lysate was subsequently cooled on ice and acidified with HCl to a final concentration of 10 mM. After 15 min incubation on ice, the lysate was centrifuged at 13,000×g for 30 min at 4°C. To the supernatant, 250 µL of dibasic sodium phosphate (0.4 M, pH 9.5) was added and the mixture was stored at −80°C until labeling.
(§2) The labeling protocol has been earlier described in detail. Each group within an experiment (control/treated) was labeled with a different isotopic tag. The TMAB-NHS labels were dissolved in DMSO to a concentration of 400 µg/µL and 15 mg of label was used per 150 mm plate of cells. […] At the beginning, the pH of the peptide extract was adjusted to 9.5 with 1 M NaOH. Labeling was performed over 8 rounds; 4.69 µL of the label was added to the extract every 20 min. The pH was measured between each round and if necessary, brought back to 9.5 for the first five rounds. For rounds 6–8, the pH was not adjusted after the addition of the TMAB-NHS reagent. After the final round of label addition, the pH was adjusted to 9.5 again and the extracts were incubated at room temperature for 90 min. Thereafter, 30 µL of 2.5 M glycine was added to quench any unreacted label. Following 40 min incubation at room temperature, the labeled extracts for a single experiment were pooled and filtered through Amicon Ultracel-10 K units. It is important to ensure that only N-terminal amines and lysine side-chain amines of peptides are TMAB-labeled and not tyrosines. To hydrolyze any labeled tyrosine, 30 µL of a 2 M solution of hydroxylamine hydrochloride (pH 3.7) was added over three rounds to the pooled and filtered sample. The pH was measured after the addition of hydroxylamine and adjusted to 9.0 with 1 M NaOH. The samples were desalted through PepClean C-18 spin columns (Thermo Scientific, Rockford, IL, USA) by following manufacturer’s instructions. Peptides were eluted using 160 µL of 0.5% TFA and 70% acetonitrile, frozen at −80°C and then lyophilized in a vacuum centrifuge and stored at −80°C until analysis by mass spectrometry.
(§3) The LC-MS/MS experiments were performed on a Synapt G2 mass spectrometer coupled to a NanoAcquity capillary liquid chromatography system (Waters Co., Milford, MA, USA).

SH-SY5Y cells = assay: Quantitative peptidomics (TMAB isotopic labels, LC-MS/MS) of inhibitor-treated SH-SY5Y cells; type: cell-based, human; settings: SH-SY5Y cells, 35 min; 2.5 µM MG132, 1 µM other inhibitors
Procedure: as §1, §2, §3

| SMILES | change in levels of intracellular peptides (peptidome) (HEK293T cells; HEK293T cells, 35 min, 2.5 µM MG132, 1 µM other inhibitors) | change in levels of intracellular peptides (peptidome) (SH-SY5Y cells) | Relative Levels of peptide AKADGIVSKNF (RPS21) (HEK293T cells; 1 uM, 35', HEK) | Relative Levels of peptide Ac-ASKRALVIL (PARK7) (HEK293T cells; 1 uM, 35', HEK) | Relative Levels of peptide Ac-ASKRALVILA (PARK7) (HEK293T cells; 1 uM, 35', HEK) | Relative Levels of peptide Ac-MDTSRVQPIKL (RPS28) (HEK293T cells; 1 uM, 35', HEK) | Relative Levels of peptide Ac-MDTSRVQPIKLAR (RPS28) (HEK293T cells; 1 uM, 35', HEK) | Relative Levels of peptide Ac-SSEEGKLFVGGLNF (RBM3) (HEK293T cells; 1 uM, 35', HEK) | Relative Levels of peptide Ac-SYGRPPPDVEGMTSLKVDNL (SRSF2) (HEK293T cells; 1 uM, 35', HEK) | Relative Levels of peptide GAIRDIDL (SRSF1) (HEK293T cells; 1 uM, 35', HEK) | Relative Levels of peptide GFGDLKSPAGLQVL (EEF1B2) (HEK293T cells; 1 uM, 35', HEK) | Relative Levels of peptide GVQVETISPGDGRTFPKRGQT (FKBP1A) (HEK293T cells; 1 uM, 35', HEK) | Relative Levels of peptide KHTGPGILSM (PPIA) (HEK293T cells; 1 uM, 35', HEK) |
| --- | --- | --- | --- | --- | --- | --- | --- | --- | --- | --- | --- | --- | --- |
| CC(C)C[C@H](NC(=O)[C@H](CCc1ccccc1)NC(=O)CN1CCOCC1)C(=O)N[C@@H](Cc1ccccc1)C(=O)N[C@@H](CC(C)C)C(=O)[C@@]1(C)CO1 [carfilzomib, reference compound] | decreased the levels of many peptides but also elevated levels of a number of other peptides | decreased the levels of many peptides but also elevated levels of a number of other peptides |  |  |  |  |  |  |  |  |  |  |  |
| CC(=O)N[C@@H](CSC(=O)[C@]1([C@@H](O)C(C)C)NC(=O)[C@H](C)[C@@H]1O)C(=O)O [Lactacys] |  |  | 0.16 and 0.15 | < 0.20 and 0.26 | 0.29 and 0.31 | 0.31 and 0.28 | 0.52 and 0.70 | 0.39 and 0.30 | 0.40 and 0.50 | < 0.20 | 0.19 and 0.14 | 0.31 and 0.26 | 0.25 and 0.22 |
